Read-outs that look alike come from different tables or passages of the source. Where a SMILES comes first, the peptide text is derived from it. Bridges are numbered along the chain shown (N, C = ends). Roman numbers before positions name the chains, in order. Where no end group is shown, it is not given here.
Legend:
[1] = tested on: C. guilliermondi CCARM 14018; format: cell-based
Experimental: To determine the candidacidal activity of the peptides, we used Candida strains obtained from the Culture collection of antimicrobial resistant microbes at Seoul Women’s University in Korea. These included three Candida albicans (CCARM 14020, 14021, 14022), Candida guillermondi and Candida tropicalis. In addition, Candida albicans SC5413 was kindly provided by Dr Jeong-Yoon Kim at the Department of Microbiology & Molecular Biology, Chungnam University, Korea. Yeast were cultured overnight at 30°C in 10 ml of yeast extract-peptone-dextrose (YPD) broth (Qbiogene), then diluted in 10 ml of YPD broth to OD600 = 0.2 and grown for an additional 4 h with shaking at 30°C until OD600 = 0.8 in order to obtain mid-log phase cultures. The peptides (Hst 5, P113, HHP1, HHP2, PH1, PH2, di-PH1, di-PH2, WP1, di-WP2, di-15Hc and di-18Hc) in this study were synthesized by using standard solid-phase synthesis protocols and were purified by reversed-phase high-performance liquid chromatography at Anygen Inc. (Korea). FITC-labeled peptides (F-Hst5, F-P113, F-HHP1, F-di-PH2, F-di-WP2 and F-di-18Hc) were also synthesized by 6-aminohexnoic acid linker at Anygen (Korea) for confocal experiments.
The candidacidal activities of the peptides were tested by using standard microdilution plate assays, radial diffusion assays and broth dilution assay slightly modified from the procedure recommended by the National Committee for Clinical Laboratory Standards. For the candidacidal assays, C. albicans cells were grown in YPD medium and washed twice with 10 mM sodium phosphate buffer (NaPB; Na2HPO4, NaH2PO4, pH 7.4). The cells (1 x 10^6) were then mixed with different concentrations of peptides and incubated at 30°C with constant shaking for 60 min. For energy depletion experiments, cells were pre-incubated with 10 mM NaPB containing 5 mM NaN3 at 30°C for 60 min before the addition of peptides. The cell suspensions were diluted in 10 mM NaPB and aliquots of 500 cells were spread onto YPD agar plates then incubated for 24 h at 30°C to visualize the surviving colonies. Cell survival was expressed as a percentage of that for the control, and the loss of viability was calculated as [1 x (number of colonies from peptide-treated cells/number of colonies from control cells)] x 100. Candidacidal assays were performed in triplicate. For the radial diffusion assay, C. albicans cells were grown in YPD medium overnight and washed twice with 10 mM NaPB. Washed yeast-phase C. albicans cells (1 x 10^6 CFU) were trapped in thin underlay gels containing 9 mM sodium phosphate, 1 mM sodium citrate buffer, 1% (wt/vol) agarose (A6013; Sigma), and 0.3 mg of Sabouraud dextrose broth (Difco)/ml. After incubation at 37°C for 3 h, a 10 ml overlay gel of 1% agarose and 6% Sabouraud dextrose broth was poured on the underlay gel and then the plates were incubated overnight at 37°C. The clear-zone diameters were measured to the nearest 0.1 mm and graphed against the peptide concentration. Zone diameters were expressed in units (0.1 mm = 1 unit). For the broth dilution assay, the Candida strains were cultured in LYM broth for 18 h at 30°C. The numbers of yeasts were counted using a hemocytometer. Stock peptide solutions were prepared to a concentration of 320 μg/ml in distilled water, and were then serially diluted twofold, to 5 μg/ml. 100 μl aliquots of the diluted culture media containing candida cells (1 x 10^3) were dispensed into the wells of 96-well polypropylene microtiter plates (Costar 3879, Corning, NY), to which peptide solution (11 μl) was then added. In the experiments conducted to assess the candidacidal activity of peptides in the presence of salt, we used LYM supplemented with 150 mM NaCl for the culture medium, which was mixed with the peptide solution. The antifungal activities were evaluated after 24 h of incubation at 30°C by the observation of visible turbidity the wells. […]

[2] = CD spectra, secondary structure analysis; format: physicochemical; conditions: solvent Laminarin (20 mg/ml in buffer), 200 μg/ml peptide
[3] = NaCl 150 mM, LYM supplemented with 150 mM NaCl, 24 h at 30°C

C[C@H](NC(=O)[C@H](Cc1c[nH]cn1)NC(=O)[C@H](CO)NC(=O)[C@@H](N)CC(=O)O)C(=O)N[C@@H](CCCCN)C(=O)N[C@@H](CCCNC(=N)N)C(=O)N[C@@H](Cc1c[nH]cn1)C(=O)N[C@@H](Cc1c[nH]cn1)C(=O)NCC(=O)N[C@@H](Cc1ccc(O)cc1)C(=O)N[C@@H](CCCCN)C(=O)N[C@@H](CCCNC(=N)N)C(=O)N[C@@H](CCCCN)C(=O)N[C@@H](Cc1ccccc1)C(=O)N[C@@H](Cc1c[nH]cn1)C(=O)N[C@@H](CCC(=O)O)C(=O)N[C@@H](CCCCN)C(=O)N[C@@H](Cc1c[nH]cn1)C(=O)N[C@@H](Cc1c[nH]cn1)C(=O)N[C@@H](CO)C(=O)N[C@@H](Cc1c[nH]cn1)C(=O)N[C@@H](CCCNC(=N)N)C(=O)NCC(=O)N[C@@H](Cc1ccc(O)cc1)C(=O)O [Hst 5, Histatin 5]
MICs ([1]; CCARM 14018, 24 h): 1 to 2 µg/mL | MICs [1, 3]: 32< μg/ml | Secondary structure (%) Beta [2]: 21.7% | Secondary structure (%) Helix [2]: 0.0% | Secondary structure (%) Random [2]: 62% | Secondary structure (%) Turn [2]: 16.3%

CC(C)C[C@H](NC(=O)CNC(=O)[C@H](Cc1c[nH]cn1)NC(=O)[C@H](Cc1c[nH]cn1)NC(=O)[C@H](CC(C)C)NC(=O)[C@H](CC(C)C)NC(=O)[C@H](C)NC(=O)[C@H](CC(N)=O)NC(=O)[C@H](CC(C)C)NC(=O)[C@@H](N)Cc1c[nH]c2ccccc12)C(=O)N[C@@H](CC(N)=O)C(=O)N[C@@H](CSSC[C@H](NC(=O)[C@H](CC(N)=O)NC(=O)[C@H](CC(C)C)NC(=O)CNC(=O)[C@H](Cc1c[nH]cn1)NC(=O)[C@H](Cc1c[nH]cn1)NC(=O)[C@H](CC(C)C)NC(=O)[C@H](CC(C)C)NC(=O)[C@H](C)NC(=O)[C@H](CC(N)=O)NC(=O)[C@H](CC(C)C)NC(=O)[C@@H](N)Cc1c[nH]c2ccccc12)C(=O)N[C@@H](C)C(=O)N[C@@H](CCCCN)C(=O)NCC(=O)N[C@H](C(=O)N[C@@H](CC(C)C)C(=O)N[C@@H](C)C(N)=O)C(C)C)C(=O)N[C@@H](C)C(=O)N[C@@H](CCCCN)C(=O)NCC(=O)N[C@H](C(=O)N[C@@H](CC(C)C)C(=O)N[C@@H](C)C(N)=O)C(C)C [di-18Hc, reference compound] (I: H-WLNALLHHGLNCAKGVLA-NH2 / II: H-WLNALLHHGLNCAKGVLA-NH2; disulfide I:12-II:12 (inferred); N-terminus assumed)
Secondary structure (%) Beta [2]: 29.7% | Secondary structure (%) Helix [2]: 29.2% | Secondary structure (%) Random [2]: 30.3% | Secondary structure (%) Turn [2]: 10.8%

CC(C)C[C@H](NC(=O)CNC(=O)[C@H](Cc1c[nH]cn1)NC(=O)[C@H](Cc1c[nH]cn1)NC(=O)[C@H](CCCNC(=N)N)NC(=O)[C@H](CCCCN)NC(=O)[C@H](C)N)C(=O)N[C@@H](CC(N)=O)C(=O)N[C@@H](CSSC[C@H](NC(=O)[C@H](CC(N)=O)NC(=O)[C@H](CC(C)C)NC(=O)CNC(=O)[C@H](Cc1c[nH]cn1)NC(=O)[C@H](Cc1c[nH]cn1)NC(=O)[C@H](CCCNC(=N)N)NC(=O)[C@H](CCCCN)NC(=O)[C@H](C)N)C(=O)N[C@@H](C)C(=O)N[C@@H](CCCCN)C(=O)N[C@@H](Cc1ccccc1)C(=O)N[C@@H](Cc1c[nH]cn1)C(N)=O)C(=O)N[C@@H](C)C(=O)N[C@@H](CCCCN)C(=O)N[C@@H](Cc1ccccc1)C(=O)N[C@@H](Cc1c[nH]cn1)C(N)=O [di-PH2] (I: H-AKRHHGLNCAKFH-NH2 / II: H-AKRHHGLNCAKFH-NH2; disulfide I:9-II:9 (inferred); N-terminus assumed)
MICs [1, 3]: 32< μg/ml | Secondary structure (%) Beta [2]: 0.0% | Secondary structure (%) Helix [2]: 20.5% | Secondary structure (%) Random [2]: 61.1% | Secondary structure (%) Turn [2]: 18.4%

CC(C)C[C@H](NC(=O)[C@@H](N)Cc1c[nH]c2ccccc12)C(=O)N[C@@H](CC(N)=O)C(=O)N[C@@H](C)C(=O)N[C@@H](CCCCN)C(=O)N[C@@H](CCCNC(=N)N)C(=O)N[C@@H](Cc1c[nH]cn1)C(=O)N[C@@H](Cc1c[nH]cn1)C(=O)NCC(=O)N[C@@H](Cc1ccc(O)cc1)C(=O)N[C@@H](CCCCN)C(=O)N[C@@H](CSSC[C@H](NC(=O)[C@H](CCCCN)NC(=O)[C@H](Cc1ccc(O)cc1)NC(=O)CNC(=O)[C@H](Cc1c[nH]cn1)NC(=O)[C@H](Cc1c[nH]cn1)NC(=O)[C@H](CCCNC(=N)N)NC(=O)[C@H](CCCCN)NC(=O)[C@H](C)NC(=O)[C@H](CC(N)=O)NC(=O)[C@H](CC(C)C)NC(=O)[C@@H](N)Cc1c[nH]c2ccccc12)C(=O)N[C@@H](CCCCN)C(=O)N[C@@H](Cc1ccccc1)C(=O)N[C@@H](Cc1c[nH]cn1)C(N)=O)C(=O)N[C@@H](CCCCN)C(=O)N[C@@H](Cc1ccccc1)C(=O)N[C@@H](Cc1c[nH]cn1)C(N)=O [di-WP2] (I: H-WLNAKRHHGYKCKFH-NH2 / II: H-WLNAKRHHGYKCKFH-NH2; disulfide I:12-II:12 (inferred); N-terminus assumed)
MICs ([1]; CCARM 14018, 24 h): 2 to 4 µg/mL | Secondary structure (%) Beta [2]: 24.5% | Secondary structure (%) Helix [2]: 0.0% | Secondary structure (%) Random [2]: 54.7% | Secondary structure (%) Turn [2]: 20.8%

AKRHHGYKRKFH-NH2 [P113]
MICs ([1]; CCARM 14018, 24 h): 0.5 to 1 µg/mL | MICs [1, 3]: 32< μg/ml | Secondary structure (%) Beta [2]: 0.2% | Secondary structure (%) Helix [2]: 2.8% | Secondary structure (%) Random [2]: 72.2% | Secondary structure (%) Turn [2]: 24.7%
